Source: ChEMBL document CHEMBL2095176, “GSK Tuberculosis Screening Data”
≈ marks a conversion by molar mass, not a printed value.

Tested on: Mycobacterium tuberculosis variant bovis BCG
Assay: microbe, parasite or virus in culture
Format: functional

Structure (SMILES) | MIC90 [µM]
CCCCc1ccc(C(=O)Nc2nccc3ccccc23)nc1 | 7.2 (≈ 2.2 µg/mL)
CCOc1ccc(-c2nnc(NC(=O)c3cnc(Cl)c(Cl)c3)o2)cc1 | 9.6 (≈ 3.64 µg/mL)
CC(=O)CCN1C(=O)C(=O)c2cc(Br)ccc21 | 7.9 (≈ 2.34 µg/mL)
CCOc1ncccc1C(=O)Nc1ccccc1Nc1ccccc1 | 6.4 (≈ 2.13 µg/mL)
O=C(NCc1cc(Cl)cc(Cl)c1)c1c(C(F)(F)F)nc2ccccn12 | 1.3 (≈ 0.505 µg/mL)
CC1CNC(c2ccc(NC(=O)c3ccc(C(=O)Nc4ccc(C5=NC(C)CN5)cc4)cc3)cc2)=N1 (stereo unspecified) | 0.8 (≈ 0.384 µg/mL)
CC(C)c1ccc(C(=O)Nc2ccc3c(c2)CN(C)CC3)cc1C(F)(F)F | 6.8 (≈ 2.56 µg/mL)
COc1cc(Cc2cnc(N)nc2N)c2cnccc2c1N(C)C | 6.4 (≈ 2.08 µg/mL)
CCc1c(C)nc(-n2nc(C)cc2NC(=O)c2cccc3ccccc23)[nH]c1=O | 1.8 (≈ 0.697 µg/mL)
Cc1ccc2nc(Cl)c(CNCc3cccs3)cc2c1 | 7.2 (≈ 2.18 µg/mL)
CC1CCC(NC(=O)Nc2ccc3snnc3c2)CC1 (stereo unspecified) | 7 (≈ 2.03 µg/mL)
CCOc1ccccc1NC(=O)C(Cc1ccccc1)NC(=O)c1cccs1 (stereo unspecified) | 9 (≈ 3.55 µg/mL)
C=CCc1cc(C(=O)NC2CCC(C(C)(C)C)CC2)ccc1OC (stereo unspecified) | 8.1 (≈ 2.67 µg/mL)
Cc1nc(-c2cccc(C(F)(F)F)c2)nc(N2CCNCC2)c1C | 0.5 (≈ 0.168 µg/mL)
c1cc2c(s1)CCOC21CCN(Cc2ccc3c(c2)OCCO3)CC1 | 1.6 (≈ 0.572 µg/mL)
Cc1ccc(CCNC(=O)c2c(-c3ccc(F)cc3F)noc2C)cc1 | 9.8 (≈ 3.49 µg/mL)
O=C(NNC(=O)c1cc2cc([N+](=O)[O-])ccc2s1)c1cccs1 | 9.2 (≈ 3.2 µg/mL)
O=C(Nc1nc(-c2ccccn2)cs1)c1ccc(Br)o1 | 3.5 (≈ 1.23 µg/mL)
COc1ccc(CNC(=O)c2cnn3c2NC(c2ccc(OC)cc2)CC3C(F)(F)F)cc1 (stereo unspecified) | 9.1 (≈ 4.19 µg/mL)

Structure (SMILES) | MIC90 [µM]
Cc1cc(S(=O)(=O)c2ccccc2)cc2c(Nc3ccc(N4CCOCC4)cc3)c(C(N)=O)cnc12 | 8.8 (≈ 4.42 µg/mL)
COc1ccc(Nc2nc(CN3CCN(Cc4cc(=O)n5ccsc5n4)CC3)cs2)cc1 | 6 (≈ 2.81 µg/mL)
O=c1c2sc(-c3ccc(Cl)cc3)cc2ncn1-c1ccc(OCCN2CC[C@@H](F)C2)cc1 | 6.7 (≈ 3.15 µg/mL)
O=C(NC1CCN(Cc2ccsc2)C1)c1sccc1-c1cccc(F)c1 (stereo unspecified) | 7.3 (≈ 2.82 µg/mL)
Cc1ccc2sc(N(CCCn3ccnc3)C(=O)c3ccco3)nc2c1C | 5.6 (≈ 2.13 µg/mL)
CCOc1ccc(C(=O)Nc2cc(Cl)c3c(c2)CNCC3)cc1C(C)=O | 9.2 (≈ 3.43 µg/mL)
CC(C)n1cc(CN2CCCC(C(=O)c3ccc(-c4ccccc4)cc3)C2)cn1 (stereo unspecified) | 8.9 (≈ 3.45 µg/mL)
Cc1cc(Oc2cccc(CN3CCCC3)c2)nc(NCCc2ccccc2)n1 | 8.9 (≈ 3.46 µg/mL)
Cc1ncc(C(=O)Nc2cccc(-c3cc(-c4c(Cl)cccc4Cl)no3)c2)c(-c2ccccc2)n1 | 1.2 (≈ 0.602 µg/mL)
Cc1cccc(Cn2ccc(NC(=O)c3ccc4c(c3)OCO4)n2)c1 | 8.2 (≈ 2.75 µg/mL)
N=C(Nc1nc(-c2ccccn2)cc2ccccc12)c1cccc(Cl)c1 | 0.6 (≈ 0.215 µg/mL)
O=C(Cc1c(Cl)cccc1Cl)Nc1nc(-c2ccccn2)cs1 | 9.4 (≈ 3.42 µg/mL)
COc1ccc(CC(=O)Nc2c(-c3cccs3)nc3cc(C)ccn23)cc1 | 9.2 (≈ 3.47 µg/mL)
O=C(NC1CCCCC1)c1cc2cc(OC(F)(F)F)ccc2[nH]1 | 6.4 (≈ 2.09 µg/mL)
Cc1nn(CC(C)C)c(Cl)c1C(=O)Nc1nc(-c2ccccn2)cs1 | 10 (≈ 3.76 µg/mL)
Cc1ccc2nc(C(F)(F)F)c(C(=O)NCc3ccc(C)o3)n2c1 | 4.4 (≈ 1.48 µg/mL)
CCCc1cc(N2CCN(CC#N)CC2)n2ncc(-c3ccccc3)c2n1 | 5.1 (≈ 1.84 µg/mL)
C=CCNCCS(=O)(=O)c1cccc(Nc2ncc(-c3cccc(F)c3)cn2)c1 | 9.6 (≈ 3.96 µg/mL)
Cc1ccc(Cl)c2sc(N(CCN(C)C)C(=O)CS(=O)(=O)c3ccc(F)cc3)nc12 | 6.4 (≈ 3.01 µg/mL)

Structure (SMILES) | MIC90 [µM]
CCc1c(C)nc(-n2nc(C)cc2NC(=O)c2ccccc2SC)[nH]c1=O | 3.6 (≈ 1.38 µg/mL)
COCc1nc(N2CCNCC2)c2c(C)nn(-c3cccc(Cl)c3)c2n1 | 1.9 (≈ 0.708 µg/mL)
CCSc1cccc(C(=O)Nc2nnc(-c3ccc(C)cc3C)o2)c1 | 5.2 (≈ 1.84 µg/mL)
CC(C)Oc1ccc(C(=O)Nc2nc(-c3ccccn3)cs2)cc1 | 4.1 (≈ 1.39 µg/mL)
c1ccc(COc2ccc(CN3CCC4(CC3)OCCc3sccc34)cc2)nc1 | 6.4 (≈ 2.6 µg/mL)
COc1ccc(-c2ccc(Nc3cccc(S(=O)(=O)CCNCCn4nc(C)cc4C)c3)nc2)cn1 | 6.9 (≈ 3.5 µg/mL)
O=C(CCc1ccsc1)Nc1nc(-c2ccccn2)cs1 | 9.4 (≈ 2.96 µg/mL)
Cc1nc(SCC(=O)Nc2sccc2C#N)n(Cc2ccc(Cl)cc2)c1C | 8.1 (≈ 3.38 µg/mL)
O=C(c1cnn(C(=O)c2ccco2)c1)c1cc(F)ccc1O | 4.2 (≈ 1.26 µg/mL)
Cc1ccc2nc(C(F)(F)F)c(C(=O)NCc3cccc(OC(C)C)c3)n2c1 | 1.9 (≈ 0.744 µg/mL)
CCCc1ccc(NC(=O)c2ccc(CN3CCN(Cc4ccsc4)CC3)cc2)cc1 | 5.6 (≈ 2.43 µg/mL)
CCN(CC)CCCn1c(Sc2ccnc(N3CCN(c4ccncc4)CC3)n2)nnc1-c1ccccc1 | 2.4 (≈ 1.27 µg/mL)
CS(=O)(=O)c1oc(-c2cccs2)nc1S(=O)(=O)c1ccc(F)cc1 | 6.9 (≈ 2.67 µg/mL)
O=C(NC(Cc1ccccc1)C(=O)Nc1ccccc1N1CCOCC1)c1cccs1 (stereo unspecified) | 1.8 (≈ 0.784 µg/mL)
Cc1cc(NC(=O)c2cc(Br)ccc2Cl)n(-c2nc(C)c(C)c(=O)[nH]2)n1 | 5.3 (≈ 2.31 µg/mL)
Cc1cc(C)c2nc3c(cc2c1)CN(Cc1ccco1)C(=O)O3 | 9 (≈ 2.78 µg/mL)
Clc1ccc(CCNc2cc(-c3ccccc3)nc3ncnn23)cc1 | 4 (≈ 1.4 µg/mL)
O=C(Nc1nc(-c2ccccn2)cs1)c1cc2c(s1)CCCCC2 | 3.1 (≈ 1.1 µg/mL)
